From patent US20210121482A1, “WITHANOLIDES FOR THE TREATMENT OF CACHEXIA” (University of Louisville Research Foundation, Inc., priority 2019, published 2021) come the findings set out here.

The test system of experiment [1] is A2780 cells. Kind of experiment: Free peritoneal tumor weight (Example 1). It is filed as in vivo, mice. Conditions: 2 and 6 mg/kg, vs vehicle treated group. From the text:
Free peritoneal tumors (visible tumors) not associated with an organ were collected and weighed to assess WFA effects. […] At the time of euthanization and tissue collection, tumors associated with the intestines were found most frequently in the vehicle treated group and were of the largest size.

For experiment [2], the system named is gonadal fat pad. The experiment is described as follows: Qualitative assessment of gonadal fat. The experiment is classed as in vivo, mice. From the text:
Ovarian cancer progression is often associated with the specific loss of the gonadal fat pad. Thus, an attempt was made to quantify the amount of adipose tissue present in the gonadal region at the time of tissue collection post-euthanization. The severe reduction in the gonadal fat pad rendered accurate measurement of gonadal adipose tissue improbable. Further, in some mice, there was a complete absence of gonadal fat.
1. When the ovaries were embedded in adipose tissue and not readily identifiable without dissection through the fat pad, the mouse was scored “Abundant”. All mice in the control group were deemed to have an abundant amount of gonadal fat, whereas the vehicle treated group had no gonadal fat present, consistent with published reports linking specific changes in the gonadal fat pad to the progression of ovarian cancer.
2. When adipose tissue was present but in such a scant quantity that we could not accurately quantify the mass, the amount of gonadal fat was marked as “Small Amount”.

Experiment [3] has as its system phospho-p65 (NF-κB). The experiment is described as follows: Western blot and IHC of p65 in tumor samples. It is filed as in vivo, mice. Conditions: 2 and 6 mg/kg. The method, then:
Immunohistochemistry of Tumor Tissue: For the detection of various proteins, 10 μm thick sections were made from the midsection of tumor samples. A hydrophobic boundary was drawn around the sections and then they were fixed in 3.7% formaldehyde solution for 10 minutes. The slides were washed three times with 1×PBS for 5 minutes each. The sections were then blocked in 2% BSA in PBS for 30 minutes. The sections were then incubated with primary antibodies (1:100 dilution) overnight in a humidity chamber at 4° C. The sections were then washed three times with 1×PBS for 5 minutes. The slides were incubated in appropriate secondary antibodies (1:2000 dilution) for 45-60 minutes. Sections were counterstained with DAPI (1:2500 dilution) for 5 minutes to visualize nuclei. Slides were then washed twice in 1×PBS for 5 minutes, and then mounted for visualization. Nonspecific background staining was determined by performing the above protocol with omitting the inclusion of the primary antibodies. Refer to Table 2 for a complete list of antibodies utilized.
(§1) Protein Extraction and Western Blotting: Tumor samples were homogenized in chilled RIPA buffer (Sigma) supplemented with a Complete Mini Protease Inhibitor tablet (Roche Molecular Biochemicals, Indianapolis, Ind.). Tissue lysates were centrifuged at 10,000 RPM and the supernatants were collected. Protein concentration for each sample was determined using the Bradford reagent method (Bio-Rad), according to manufacturer's instructions. Protein lysates (50 bg) were separated on 10% SDS-PAGE gels at 100 volts for 2 h. The proteins were transferred to nitrocellulose membranes at 100 volts for 90 minutes. The membranes were blocked with 5% non-fat milk in Tris-buffered saline supplemented with Tween®20 (0.5%; TBS-T) for 30-60 minutes. The membranes were then washed 3 times with TBS-T for 5 minutes. The membranes were then incubated with primary antibody at 4° C. overnight. […]
(In general: In western blotting, separated proteins are transferred to a membrane and probed.)

The test system of experiment [4] is poly-ubiquitinated proteins. Kind of experiment: Immunoblot for poly-ubiquitinated proteins. The experiment is classed as in vivo, mice. Conditions: WFA treatment, 2 and 4 mg/kg. The method, then:
as §1, with “Quadriceps femoris (QF)” for “Tumor”, “μg)” for “bg)”, “Tris Buffered Saline” for “Tris-buffered saline”, “Tween-20” for “Tween®20”, “overnight. The membranes were washed 3 times with TBS-T for 5 minutes each followed by incubation in TBS-T containing horseradish peroxidase conjugated secondary antibody (1:2000 dilution) for 1 h. The membranes were rinsed 3 times with TBS-T for 5 minutes each. Visualization of immunoreactive bands was enhanced using chemiluminescence reagents (Sigma).” for “overnight.”

Experiment [5] deals with angiotensinogen (AGT). Kind of experiment: qPCR of angiotensinogen in tumor tissues. The experiment is classed as in vivo, Homo sapiens. The method, then:
Total RNA Extraction and qPCR: Isolation of total RNA from xenografted tumor samples was performed using an RNeasy® Mini Kit (Qiagen Catalog #74104) according to the manufacturer's instructions. Isolation of total RNA from skeletal muscle was performed using an RNeasy® Fibrous Tissue Mini Kit (Qiagen Catalog #74704) according to the manufacturer's instructions. First strand cDNA was synthesized using 1 μg of purified RNA and a commercially available kit (iScript™ cDNA synthesis, Bio-Rad Catalog #170-8891), Quantification of mRNA expression was performed similar to as previously described (Hindi and Kumar, 2016) using the SYBR Green dye method on a StepOnePlus™ system (Applied Biosystems) using gene-specific primers, as shown in Table 1.
Isolation and preparation of total RNA was performed as described in Example 1.
For orientation: Quantitative PCR measures a nucleic acid by following its amplification.

For the molecule `CC1=C(CO)C(=O)O[C@@H]([C@@H](C)[C@H]2CC[C@H]3[C@@H]4C[C@H]5O[C@]56[C@@H](O)C=CC(=O)[C@]6(C)[C@H]4CC[C@]23C)C1` [WFA, (4β,5β,6β,22R)-4,27-Dihydroxy-5,6:22,26-diepoxyergosta-2,24-diene-1,26-dione], in experiment [1], the “weight of free peritoneal tumors” value was “significantly reduced the size of peritoneal tumors”. In experiment [1] (at tissue collection), the “tumors associated with the intestines” value is “fewer and smaller tumors”. Besides, in experiment [2] (WFA 2 mg/kg), the “Gonadal Fat: Absent (mice scored/group)” value amounted to 0, the “Gonadal Fat: Abundant (mice scored/group)” value came to 0, the “Gonadal Fat: Present (mice scored/group)” value is reported as 4/5 and the “Gonadal Fat: Small Amount (mice scored/group)” value is 1/5. Also, in experiment [2] (WFA 6 mg/kg), the “Gonadal Fat: Absent (mice scored/group)” value is 0, the “Gonadal Fat: Abundant (mice scored/group)” value came out at 0, the “Gonadal Fat: Present (mice scored/group)” value is 1/4 and the “Gonadal Fat: Small Amount (mice scored/group)” value is reported as 3/4. The “phospho-p65 co-localized with DAPI (nuclear translocation)” value in experiment [3] is “impairment in the translocation of p65 to the nucleus”. Further, in experiment [3] (vs vehicle treated group), the “phospho-p65 staining in tumor cells (IHC)” value is on record as “severely diminished”; the “protein levels of phospho- and total p65 in tumor (immunoblot)” value is “robust decrease in the protein levels of phospho- and total p65”. Besides, the “pan-ubiquitination of proteins (immunoblot)” value in experiment [4] is “reduced in response to WFA treatment”. The “relative transcript levels of angiotensinogen in tumor samples” value in experiment [5] (WFA 2 mg/kg) is recorded as 0.3676±0.252 fold change. In addition, the “relative transcript levels of angiotensinogen in tumor samples” value in experiment [5] (WFA 4 mg/kg) stood at 0.0694±0.144 fold change.
